Test results from paper PMC9481151, “Discovery of new symmetrical and asymmetrical nitrile-containing 1,4-dihydropyridine derivatives as dual kinases and P-glycoprotein inhibitors: synthesis, in vitro assays, and in silico studies” (Journal of Enzyme Inhibition and Medicinal Chemistry, 2022).

Tests used:
MALME-3M = test: NCI single dose (10 µM) SRB screen; format: cell-based, human; conditions: melanoma, 48 h
OVCAR-4 = test: NCI single dose (10 µM) SRB screen; format: cell-based, human; conditions: ovarian cancer, 48 h
HL-60(TB) = test: NCI single dose (10 µM) SRB screen; format: cell-based, human; conditions: leukaemia, 48 h
MDA-MB-231 = test: NCI single dose (10 µM) SRB screen; format: cell-based, human; conditions: breast cancer, 48 h
HOP-62 = test: NCI single dose (10 µM) SRB screen; format: cell-based, human; conditions: non-small cell lung cancer, 48 h
NCI-H23 = test: NCI single dose (10 µM) SRB screen; format: cell-based, human; conditions: non-small cell lung cancer, 48 h
K-562 = test: NCI single dose (10 µM) SRB screen; format: cell-based, human; conditions: leukaemia, 48 h
SW-620 = test: NCI single dose (10 µM) SRB screen; format: cell-based, human; conditions: colon cancer, 48 h
SF-268 = test: NCI single dose (10 µM) SRB screen; format: cell-based, human; conditions: CNS cancer, 48 h
HCT-15 = test: NCI single dose (10 µM) SRB screen; format: cell-based, human; conditions: colon cancer, 48 h
BT-549 = test: NCI single dose (10 µM) SRB screen; format: cell-based, human; conditions: breast cancer, 48 h
UACC-62 = test: NCI single dose (10 µM) SRB screen; format: cell-based, human; conditions: melanoma, 48 h
Pseudomonas aeruginosa = test: Agar well diffusion method
RXF 393 = test: NCI single dose (10 µM) SRB screen; format: cell-based, human; conditions: renal cancer, 48 h
NCI-H522 = test: NCI single dose (10 µM) SRB screen; format: cell-based, human; conditions: non-small cell lung cancer, 48 h
SK-OV-3 = test: NCI single dose (10 µM) SRB screen; format: cell-based, human; conditions: ovarian cancer, 48 h
NCI 60 cancer cell lines = test: NCI single dose (10 µM) SRB screen, mean over panel; format: cell-based, human; conditions: mean over 60 cell lines, 48 h
MOLT-4 = test: NCI single dose (10 µM) SRB screen; format: cell-based, human; conditions: leukaemia, 48 h
LOX IMVI = test: NCI single dose (10 µM) SRB screen; format: cell-based, human; conditions: melanoma, 48 h
SN12C = test: NCI single dose (10 µM) SRB screen; format: cell-based, human; conditions: renal cancer, 48 h
SNB-19 = test: NCI single dose (10 µM) SRB screen; format: cell-based, human; conditions: CNS cancer, 48 h
786-0 = test: NCI single dose (10 µM) SRB screen; format: cell-based, human; conditions: renal cancer, 48 h
SF-539 = test: NCI single dose (10 µM) SRB screen; format: cell-based, human; conditions: CNS cancer, 48 h
OVCAR-3 = test: NCI single dose (10 µM) SRB screen; format: cell-based, human; conditions: ovarian cancer, 48 h
Staphylococcus aureus = test: Agar well diffusion method
OVCAR-8 = test: NCI single dose (10 µM) SRB screen; format: cell-based, human; conditions: ovarian cancer, 48 h
SR = test: NCI single dose (10 µM) SRB screen; format: cell-based, human; conditions: leukaemia, 48 h
UO-31 = test: NCI single dose (10 µM) SRB screen; format: cell-based, human; conditions: renal cancer, 48 h
T-47D = test: NCI single dose (10 µM) SRB screen; format: cell-based, human; conditions: breast cancer, 48 h
A498 = test: NCI single dose (10 µM) SRB screen; format: cell-based, human; conditions: renal cancer, 48 h
MCF7 = test: NCI single dose (10 µM) SRB screen; format: cell-based, human; conditions: breast cancer, 48 h
U251 = test: NCI single dose (10 µM) SRB screen; format: cell-based, human; conditions: CNS cancer, 48 h
MDA-MB-468 = test: NCI single dose (10 µM) SRB screen; format: cell-based, human; conditions: breast cancer, 48 h
MDA-MB-435 = test: NCI single dose (10 µM) SRB screen; format: cell-based, human; conditions: melanoma, 48 h
SNB-75 = test: NCI single dose (10 µM) SRB screen; format: cell-based, human; conditions: CNS cancer, 48 h
Bacillus subtilis = test: Agar well diffusion method
SK-MEL-28 = test: NCI single dose (10 µM) SRB screen; format: cell-based, human; conditions: melanoma, 48 h
HCC-2998 = test: NCI single dose (10 µM) SRB screen; format: cell-based, human; conditions: colon cancer, 48 h
SF-295 = test: NCI single dose (10 µM) SRB screen; format: cell-based, human; conditions: CNS cancer, 48 h
UACC-257 = test: NCI single dose (10 µM) SRB screen; format: cell-based, human; conditions: melanoma, 48 h
HCT-116 = test: NCI single dose (10 µM) SRB screen; format: cell-based, human; conditions: colon cancer, 48 h
EKVX = test: NCI single dose (10 µM) SRB screen; format: cell-based, human; conditions: non-small cell lung cancer, 48 h
PC-3 = test: NCI single dose (10 µM) SRB screen; format: cell-based, human; conditions: prostate cancer, 48 h
M14 = test: NCI single dose (10 µM) SRB screen; format: cell-based, human; conditions: melanoma, 48 h
NCI-H322M = test: NCI single dose (10 µM) SRB screen; format: cell-based; conditions: non-small cell lung cancer, 48 h
RPMI-8226 = test: NCI single dose (10 µM) SRB screen; format: cell-based, human; conditions: leukaemia, 48 h
A549/ATCC = test: NCI single dose (10 µM) SRB screen; format: cell-based, human; conditions: non-small cell lung cancer, 48 h
NCI/ADR-RES = test: NCI single dose (10 µM) SRB screen; format: cell-based, human; conditions: ovarian cancer, 48 h
NCI-H460 = test: NCI single dose (10 µM) SRB screen; format: cell-based, human; conditions: non-small cell lung cancer, 48 h
COLO 205 = test: NCI single dose (10 µM) SRB screen; format: cell-based, human; conditions: colon cancer, 48 h
CCRF-CEM = test: NCI single dose (10 µM) SRB screen; format: cell-based, human; conditions: leukaemia, 48 h
DU-145 = test: NCI single dose (10 µM) SRB screen; format: cell-based, human; conditions: prostate cancer, 48 h

SMILES: CC1=C(C(=O)OC(C)C)C(c2cccc(C#N)c2)C(C(=O)OC(C)C)=C(C)N1 [Compound 1c, Diisopropyl 4-(3-cyanophenyl)-2,6-dimethyl-1,4-dihydropyridine-3,5-dicarboxylate]
- GI% MALME-3M (MALME-3M): – (Only GI% ≥ 10 are shown)
- GI% OVCAR-4 (OVCAR-4): – (Only GI% ≥ 10 are shown)
- GI% HL-60(TB) (HL-60(TB)): 29%
- GI% MDA-MB-231 (MDA-MB-231): – (Only GI% ≥ 10 are shown)
- GI% HOP-62 (HOP-62): – (Only GI% ≥ 10 are shown)
- GI% NCI-H23 (NCI-H23): – (Only GI% ≥ 10 are shown)
- GI% K-562 (K-562): 25%
- GI% SW-620 (SW-620): – (Only GI% ≥ 10 are shown)
- GI% SF-268 (SF-268): – (Only GI% ≥ 10 are shown)
- GI% HCT-15 (HCT-15): 10%
- GI% BT-549 (BT-549): – (Only GI% ≥ 10 are shown)
- GI% UACC-62 (UACC-62): 14%
- zone of inhibition at 1000 µg/mL (Pseudomonas aeruginosa; Pseudomonas aeruginosa, 24 h, read-out: Diameter of inhibition zone, P. aeruginosa): 8 mm
- % activity index, P. aeruginosa (Pseudomonas aeruginosa; relative to ciprofloxacin): 34.8%
- GI% RXF 393 (RXF 393): – (Only GI% ≥ 10 are shown)
- GI% NCI-H522 (NCI-H522): 11%
- GI% SK-OV-3 (SK-OV-3): – (Only GI% ≥ 10 are shown)
- Mean GI% (NCI 60 cancer cell lines): 6%
- GI% MOLT-4 (MOLT-4): 17%
- GI% LOX IMVI (LOX IMVI): – (Only GI% ≥ 10 are shown)
- GI% SN12C (SN12C): – (Only GI% ≥ 10 are shown)
- GI% SNB-19 (SNB-19): – (Only GI% ≥ 10 are shown)
- GI% 786-0 (786-0): 16%
- GI% SF-539 (SF-539): – (Only GI% ≥ 10 are shown)
- GI% OVCAR-3 (OVCAR-3): – (Only GI% ≥ 10 are shown)
- zone of inhibition at 1000 µg/mL (Staphylococcus aureus; Staphylococcus aureus, 24 h, read-out: Diameter of inhibition zone, S. aureus): 11 mm
- % activity index, S. aureus (Staphylococcus aureus; relative to ciprofloxacin): 45.8%
- GI% OVCAR-8 (OVCAR-8): – (Only GI% ≥ 10 are shown)
- GI% SR (SR): 18%
- GI% UO-31 (UO-31): – (Only GI% ≥ 10 are shown)
- GI% T-47D (T-47D): 30%
- GI% A498 (A498): – (Only GI% ≥ 10 are shown)
- GI% MCF7 (MCF7): 11%
- GI% U251 (U251): – (Only GI% ≥ 10 are shown)
- GI% MDA-MB-468 (MDA-MB-468): 22%
- GI% MDA-MB-435 (MDA-MB-435): – (Only GI% ≥ 10 are shown)
- GI% SNB-75 (SNB-75): 20%
- zone of inhibition at 1000 µg/mL (Bacillus subtilis; Bacillus subtilis, 24 h, read-out: Diameter of inhibition zone, B. subtilis): 6 mm
- % activity index, B. subtilis (Bacillus subtilis; relative to ciprofloxacin): 26.1%
- GI% SK-MEL-28 (SK-MEL-28): – (Only GI% ≥ 10 are shown)
- GI% HCC-2998 (HCC-2998): – (Only GI% ≥ 10 are shown)
- GI% SF-295 (SF-295): – (Only GI% ≥ 10 are shown)
- GI% UACC-257 (UACC-257): – (Only GI% ≥ 10 are shown)
- GI% HCT-116 (HCT-116): 13%
- GI% EKVX (EKVX): – (Only GI% ≥ 10 are shown)
- GI% PC-3 (PC-3): 29%
- GI% M14 (M14): – (Only GI% ≥ 10 are shown)
- GI% NCI-H322M (NCI-H322M): – (Only GI% ≥ 10 are shown)
- GI% RPMI-8226 (RPMI-8226): 17%
- GI% A549/ATCC (A549/ATCC): 11%
- GI% NCI/ADR-RES (NCI/ADR-RES): – (Only GI% ≥ 10 are shown)
- GI% NCI-H460 (NCI-H460): – (Only GI% ≥ 10 are shown)
- GI% COLO 205 (COLO 205): – (Only GI% ≥ 10 are shown)
- GI% CCRF-CEM (CCRF-CEM): – (Only GI% ≥ 10 are shown)
- GI% DU-145 (DU-145): – (Only GI% ≥ 10 are shown)
